Laboratory results reported in patent publication US20210254106A1, “ENGINEERING B LYMPHOCYTES BY UTILIZING ENDOGENOUS ACTIVATION-INDUCED CYTIDINE DEAMINASE” (INSTITUTE FOR RESEARCH IN BIOMEDICINE, priority 2018, published 2021).

System: naïve B cells (IgM+ IgD+ CD27− IgG− IgA−)
Test: in vitro acquisition of natural switch region inserts in stimulated naïve B cells with DNA repair inhibitors
Assay type: cell-based, human
Settings: Olaparip 4 nM or SCR7 100 nM in culture medium vs DMSO control; B cells stimulated with K562L (CD40L) and IL4; harvested day 10; 50 000 sorted IgG switched B cells; γ-switch region PCR and MinION sequencing
Procedure: To this end, B cells were isolated by magnetic beads using anti-CD19 beads, followed by FACS-sorting and selection of naïve B cells (IgM^+ IgD^+ CD27^− IgG^− IgA^−). Cells were plated in 48 well plates at concentrations of 50 000 B cells/ml and stimulated with 25 000 irradiated K562L/ml and 8 ng/ml IL4. The DNA repair inhibitor Olaparip (4 nM), SCR7 (100 nM) or DMSO (1:100) as control were added to the culture medium. At day 3 and day 6 the culture medium was replaced which fresh medium supplemented with IL4 and inhibitors. Cells were harvested at day 10 and stained with fluorescently labeled anti-CD19 and anti-IgG antibodies. Switched IgG B cell were sorted by flow cytometry and gDNA was isolation using a commercial kit. Genomic DNA of 50 000 sorted cells were used for γ-switch region PCR amplification and MINION sequencing as described above. Inserts frequencies were analyzed with a bioinformatics pipeline (Pieper K, Tan J, Piccoli L, Foglierini M, Barbieri S, Chen Y, Silacci-Fregni C, Wolf T, Jarrossay D, Anderle M, Abdi A, Ndungu F M, Doumbo O K, Traore B, Tran T M, Jongo S, Zenklusen I, Crompton P D, Daubenberger C, Bull P C, Sallusto F, Lanzavecchia A: Public antibodies to malaria antigens generated by two LAIR1 insertion modalities. Nature. 2017. Aug. 31; 548(7669):597-601).

**Q.** How did the “natural switch insert frequencies” value turn out when `O=C(c1cc(Cc2n[nH]c(=O)c3ccccc23)ccc1F)N1CCN(C(=O)C2CC2)CC1` [Olaparib] was run?
**A.** elevated

**Q.** SCR7 was tested. Which “natural switch insert frequencies” value did it give?
**A.** decreased
